Data as given in article PMC10985906, “Anticholinesterase activities of novel isoindolin-1,3-dione-based acetohydrazide derivatives: design, synthesis, biological evaluation, molecular dynamic study” (BMC Chemistry, 2024).
Where two headings read alike, the source gives them in different places.

Key:
Aß-aggregation = details: at 10 µM; previously reported; cited from earlier work
BChE [1] = biological target: T1, BChE (Homo sapiens, UniProt P06276); details: at 10 µM; previously reported; cited from earlier work
T1 sequence (P06276 29-602): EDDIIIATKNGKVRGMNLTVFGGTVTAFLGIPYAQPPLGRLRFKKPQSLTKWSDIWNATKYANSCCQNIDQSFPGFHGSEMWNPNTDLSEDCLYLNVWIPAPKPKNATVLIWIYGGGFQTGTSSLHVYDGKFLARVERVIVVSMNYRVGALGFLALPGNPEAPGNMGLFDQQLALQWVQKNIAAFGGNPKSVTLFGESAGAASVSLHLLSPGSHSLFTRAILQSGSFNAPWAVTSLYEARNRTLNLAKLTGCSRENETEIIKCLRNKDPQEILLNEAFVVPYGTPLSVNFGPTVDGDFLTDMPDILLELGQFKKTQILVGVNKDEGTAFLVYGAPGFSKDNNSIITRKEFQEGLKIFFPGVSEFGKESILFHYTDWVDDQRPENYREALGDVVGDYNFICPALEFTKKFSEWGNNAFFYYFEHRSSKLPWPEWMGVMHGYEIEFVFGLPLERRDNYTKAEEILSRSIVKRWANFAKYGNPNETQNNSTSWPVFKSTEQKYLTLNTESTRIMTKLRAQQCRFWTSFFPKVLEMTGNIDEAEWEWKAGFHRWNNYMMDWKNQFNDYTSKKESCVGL

hBACE-1 = details: at 50 µM; previously reported; cited from earlier work
AChE [2] = biological target: T2, AChE (Homo sapiens, UniProt P22303); assay: Enzyme kinetics against AChE (Lineweaver–Burk); format: biochemical
T2 sequence (P22303 32-614): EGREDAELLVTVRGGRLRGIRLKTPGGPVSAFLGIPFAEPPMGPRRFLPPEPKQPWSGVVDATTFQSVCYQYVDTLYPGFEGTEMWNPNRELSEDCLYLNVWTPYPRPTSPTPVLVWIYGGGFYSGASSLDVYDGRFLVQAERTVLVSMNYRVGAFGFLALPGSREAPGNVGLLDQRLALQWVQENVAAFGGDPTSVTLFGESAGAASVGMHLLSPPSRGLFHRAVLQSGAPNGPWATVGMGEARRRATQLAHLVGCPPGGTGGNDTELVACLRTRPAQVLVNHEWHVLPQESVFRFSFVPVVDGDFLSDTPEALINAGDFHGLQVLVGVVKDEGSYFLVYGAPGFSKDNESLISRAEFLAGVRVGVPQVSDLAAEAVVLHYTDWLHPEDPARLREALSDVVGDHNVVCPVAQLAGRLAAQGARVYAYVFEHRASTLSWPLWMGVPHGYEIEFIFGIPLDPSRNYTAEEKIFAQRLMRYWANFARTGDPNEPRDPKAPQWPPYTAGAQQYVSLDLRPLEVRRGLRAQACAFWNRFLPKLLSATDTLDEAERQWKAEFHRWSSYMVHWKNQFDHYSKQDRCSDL
Experimental: (§1) The ChE inhibition reactions were determined by Ellman’s assay at different concentrations of 8a and 8g. […]. The inhibition constant Ki was calculated by the plot of slopes versus the corresponding concentrations of the inhibitors.

AChE [3] = biological target: T2, AChE; assay: biochemical; details: mean ± SD; modified Ellman, 37 °C, pH 7.4
BChE [4] = biological target: T1, BChE; assay: biochemical; details: mean ± SD; modified Ellman, 37 °C, pH 7.4
BChE [5] = biological target: T1, BChE; assay: Enzyme kinetics against BChE (Lineweaver–Burk); format: biochemical
Experimental: as §1

BChE [6] = biological target: T1, BChE; details: previously reported; cited from earlier work
[7] = secondary plot of Lineweaver–Burk plots

Compound | IC50 (AChE [3]) [nM] | IC50 (BChE [4]) [nM] | other results
2-(benzylamino-2-hydroxyalkyl)isoindoline-1,3-dione | – | – | Aß-aggregation inhibition (Aß-aggregation): 24.9%; BChE inhibition (BChE [1]): 14.1% ± 5.8; hBACE-1 inhibition (hBACE-1): 43.7%
CN(CC(=O)NN=Cc1ccccc1OCCCN1C(=O)c2ccccc2C1=O)Cc1ccccc1 [Compound 8a, 2-(benzyl(methyl)amino)-Nʹ-(2-(3-(1,3-dioxoisoindolin-2-yl)propoxy)benzylidene)acetohydrazide] | 110 ± 50 | 30200 ± 2800 | mode of inhibition against AChE (AChE [2]; Lineweaver–Burk plot): competitive; Ki (AChE [2]; [7]): 88.6 nM
CCN(CC(=O)NN=Cc1ccccc1OCCCN1C(=O)c2ccccc2C1=O)Cc1ccccc1 [Compound 8b, 2-(benzyl(ethyl)amino)-Nʹ-(2-(3-(1,3-dioxoisoindolin-2-yl)propoxy)benzylidene)acetohydrazide] | 180 ± 10 | 26800 ± 800 | –
CCN(CC(=O)NN=Cc1cc([N+](=O)[O-])ccc1OCCCN1C(=O)c2ccccc2C1=O)Cc1ccccc1 [Compound 8c, 2-(benzyl(ethyl)amino)-Nʹ-(2-(3-(1,3-dioxoisoindolin-2-yl)propoxy)-5-nitrobenzylidene)acetohydrazide] | 160 ± 40 | 21800 ± 1300 | –
CCN(CC(=O)NN=Cc1cccc(OCCCN2C(=O)c3ccccc3C2=O)c1)Cc1ccccc1 [Compound 8d, 2-(benzyl(ethyl)amino)-N'-(3-(3-(1,3-dioxoisoindolin-2-yl)propoxy)benzylidene)acetohydrazide] | 160 ± 30 | 11800 ± 500 | –
CCN(CC(=O)NN=Cc1ccc(OC)c(OCCCN2C(=O)c3ccccc3C2=O)c1)Cc1ccccc1 [Compound 8e, 2-(benzyl(ethyl)amino)-Nʹ-(3-(3-(1,3-dioxoisoindolin-2-yl)propoxy)-4-methoxybenzylidene)acetohydrazide] | 210 ± 30 | 14700 ± 200 | –
CN(CC(=O)NN=Cc1ccc(OCCCN2C(=O)c3ccccc3C2=O)cc1)Cc1ccccc1 [Compound 8f, 2-(benzyl(methyl)amino)-Nʹ-(4-(3-(1,3-dioxoisoindolin-2-yl)propoxy)benzylidene)acetohydrazide] | 320 ± 20 | 15700 ± 1200 | –
CCN(CC(=O)NN=Cc1ccc(OCCCN2C(=O)c3ccccc3C2=O)cc1)Cc1ccccc1 [Compound 8g, 2-(benzyl(ethyl)amino)-Nʹ-(4-(3-(1,3-dioxoisoindolin-2-yl)propoxy)benzylidene)acetohydrazide] | 860 ± 20 | 5700 ± 200 | mode of inhibition against BChE (BChE [5]; Lineweaver–Burk plot): competitive; Ki (BChE [5]; [7]): 3650 nM
CCN(CC(=O)NN=Cc1ccc(OCCCN2C(=O)c3ccccc3C2=O)c(OC)c1)Cc1ccccc1 [Compound 8h, 2-(benzyl(ethyl)amino)-Nʹ-(4-(3-(1,3-dioxoisoindolin-2-yl)propoxy)-3-methoxybenzylidene)acetohydrazide] | 170 ± 60 | 13200 ± 1400 | –
CN(C)C(=O)Oc1cccc([N+](C)(C)C)c1 [neostigmine] | – | – | IC50 (BChE [6]): 84 nM
Oc1ccc(/C=C/c2cc(O)cc(O)c2)cc1 [resveratrol] | – | – | Aß-aggregation inhibition (Aß-aggregation): 78.5% ± 5.2
